Assay results reported in patent publication US20170000133A1, “BENZOXABOROLE FUNGICIDES” (SYNGENTA PARTICIPATIONS AG, priority 2013, published 2017).

Assays:
[1] = test system: Monographella nivalis (Microdochium nivale); test: Monographella nivalis (Microdochium nivale) / liquid culture (foot rot cereals); assay type: cell-based; settings: PDB potato dextrose broth, 24° C., 4-5 days after application, read-out: disease control (inhibition of growth determined photometrically)
[2] = test system: Thanatephorus cucumeris (Rhizoctonia solani); test: Thanatephorus cucumeris (Rhizoctonia solani) / liquid culture (foot rot, damping-off); assay type: cell-based; settings: PDB potato dextrose broth, 24° C., 3-4 days after application, read-out: disease control (inhibition of growth determined photometrically)
Method in brief: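 Photometric growth-inhibition readout taken 3-4 days after application, with cultures incubated at 24 °C. Test compound was applied at 200 ppm from DMSO solution to R. solani mycelial fragments in PDB.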

[3] = test system: Puccinia recondita f. sp. tritici; test: Puccinia recondita f. sp. tritici / wheat / leaf disc preventative (brown rust); assay type: in vivo; settings: foliar, wheat leaf segments cv Kanzler, inoculated 1 day after application, assessed 7-9 days after application, read-out: disease control
From the text: 3. Puccinia recondita f. sp. tritici/Wheat/Leaf Disc Preventative (Brown Rust): Wheat leaf segments cultivated variety (cv) Kanzler were placed on agar in 24-well plates and sprayed with formulated test compound diluted in water at an application rate of 200 ppm. The leaf disks were inoculated with a spore suspension of the fungus 1 day after application.

[4] = test system: Mycosphaerella arachidis (Cercospora arachidicola); test: Mycosphaerella arachidis (Cercospora arachidicola) / liquid culture (early leaf spot); assay type: cell-based; settings: PDB potato dextrose broth, 24° C., 4-5 days after application, read-out: disease control (inhibition of growth determined photometrically)
Method in brief: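 Test compound, applied at 200 ppm from DMSO solution, was combined with spore-containing potato dextrose broth. Photometric growth inhibition was scored after 4-5 days at 24° C.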

[5] = test system: Glomerella lagenarium (Colletotrichum lagenarium); test: Glomerella lagenarium (Colletotrichum lagenarium) / liquid culture (anthracnose); assay type: cell-based; settings: Colletotrichum orbiculare, PDB potato dextrose broth, 24° C., 3-4 days after application, read-out: disease control (inhibition of growth measured photometrically)
Method in brief: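 Compound was applied at 200 ppm from DMSO solution, then potato dextrose broth carrying cryostored fungal spores was added. Growth inhibition was measured by photometry after 3-4 days of incubation at 24° C.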

Pythium ultimum = Pythium ultimum / liquid culture (seedling damping off); assay type: cell-based; settings: Globisporangium ultimum; 200 ppm; potato dextrose broth, 24° C., 2-3 days after application; read-out: disease control (inhibition of growth determined photometrically)
Plasmopara viticola = test: whole plant or invertebrate; assay type: in vivo; settings: foliar, read-out: disease control
[6] = test system: Botryotinia fuckeliana (Botrytis cinerea); test: Botryotinia fuckeliana (Botrytis cinerea) / liquid culture (gray mould); assay type: cell-based; settings: Vogels broth, 24° C., 3-4 days after application, read-out: disease control (inhibition of growth determined photometrically)
Protocol: 10. Botryotinia fuckeliana (Botrytis cinerea)/Liquid Culture (Gray Mould): Conidia of the fungus from cryogenic storage were directly mixed into nutrient broth (Vogels broth). After placing a DMSO solution of test compound into a 96-well microtiter plate at an application rate of 200 ppm, the nutrient broth containing the fungal spores was added. The test plates were incubated at 24° C. and the inhibition of growth was determined photometrically 3-4 days after application.

Gaeumannomyces graminis = Gaeumannomyces graminis / liquid culture (take-all of cereals); assay type: cell-based; settings: PDB potato dextrose broth, 24° C., 4-5 days after application, read-out: disease control (inhibition of growth determined photometrically)
Method in brief: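 Growth inhibition measured photometrically 4–5 days post-application, following incubation at 24 °C. Test compound, applied from DMSO at 200 ppm, mixed with fungal mycelial fragments in potato dextrose broth.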

[7] = test system: Mycosphaerella graminicola (Septoria tritici); test: Mycosphaerella graminicola (Septoria tritici) / liquid culture (Septoria blotch); assay type: cell-based; settings: Zymoseptoria tritici, PDB potato dextrose broth, 24° C., 4-5 days after application, read-out: disease control (inhibition of growth determined photometrically)
Method in brief: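 Growth inhibition was read photometrically 4-5 days after application, following incubation at 24° C of fungal conidia in potato dextrose broth over test compound (200 ppm, from DMSO solution) in microtiter plates.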

Phytophthora infestans = test: whole plant or invertebrate; assay type: in vivo; settings: in Solanum lycopersicum, foliar, read-out: disease control
Fusarium culmorum = test: microbe, parasite or virus in culture; assay type: cell-based; settings: read-out: disease control (inhibition of growth determined visually)

Row | SMILES | inhibition at 200 ppm [1] | inhibition at 200 ppm [2] | pest or weed control at 200 ppm [3] | inhibition at 200 ppm [4] | inhibition at 200 ppm [5] | inhibition at 200 ppm (Pythium ultimum) | pest or weed control at 200 ppm (Plasmopara viticola) | inhibition at 200 ppm [6] | inhibition at 200 ppm (Gaeumannomyces graminis) | inhibition at 200 ppm [7] | pest or weed control at 200 ppm (Phytophthora infestans) | melting point | inhibition at 200 ppm (Fusarium culmorum)
1 | O=C(OCC1CCSCC1)c1cc2c(cc1F)COB2O [Compound 380] | ≥ 80% | ≥ 80% | ≥ 80% | ≥ 80% | ≥ 80% | ≥ 80% | ≥ 80% | – | – | – | – | – | –
2 | C[Si](C)(C)/C=C/COC(=O)c1cc2c(cc1Cl)COB2O [Compound 216] | ≥ 80% | – | – | ≥ 80% | – | – | – | ≥ 80% | ≥ 80% | ≥ 80% | – | – | –
3 | CCCCCCCCCCOC(=O)c1cc2c(cc1F)COB2O [Compound 391] | – | ≥ 80% | ≥ 80% | ≥ 80% | – | ≥ 80% | – | – | ≥ 80% | – | – | – | –
4 | O=C(OCc1cccc(F)c1)c1cc2c(cc1F)COB2O [Compound 434] | ≥ 80% | ≥ 80% | – | ≥ 80% | ≥ 80% | ≥ 80% | ≥ 80% | ≥ 80% | ≥ 80% | ≥ 80% | – | – | –
5 | C[Si](C)(C)COC(=O)c1ccc2c(c1)B(O)OC2 [Compound 367] | ≥ 80% | ≥ 80% | ≥ 80% | – | ≥ 80% | ≥ 80% | ≥ 80% | – | ≥ 80% | ≥ 80% | – | – | –
6 | O=C(OCc1cccc2ccccc12)c1cc2c(cc1Cl)COB2O [Compound 207] | ≥ 80% | – | ≥ 80% | – | – | ≥ 80% | – | – | ≥ 80% | – | ≥ 80% | – | –
7 | Cc1cccc(Cl)c1NC(=O)c1cc2c(cc1F)COB2O [Compound 150] | ≥ 80% | – | – | – | ≥ 80% | ≥ 80% | – | – | – | – | ≥ 80% | 212 to 214 °C | ≥ 80%
8 | CCCCCCCOC(=O)c1ccc2c(c1)B(O)OC2 [Compound 317] | ≥ 80% | ≥ 80% | ≥ 80% | ≥ 80% | ≥ 80% | ≥ 80% | ≥ 80% | ≥ 80% | ≥ 80% | ≥ 80% | – | – | –
9 | COC(=O)C(OC(=O)c1ccc2c(c1)B(O)OC2)c1ccccc1 (stereo not drawn) [Compound 349] | ≥ 80% | – | ≥ 80% | – | ≥ 80% | ≥ 80% | ≥ 80% | – | ≥ 80% | – | – | – | –
10 | COC(=O)c1sccc1NC(=O)c1cc2c(cc1Cl)COB2O [Compound 169] | ≥ 80% | – | ≥ 80% | – | ≥ 80% | – | ≥ 80% | – | – | ≥ 80% | – | 267 to 269 °C | –
11 | O=C(OCCc1c(Cl)cccc1Cl)c1ccc2c(c1)B(O)OC2 [Compound 373] | ≥ 80% | – | – | – | – | – | ≥ 80% | ≥ 80% | ≥ 80% | ≥ 80% | – | – | ≥ 80%
12 | COC(=O)c1sccc1NC(=O)c1cc2c(cc1F)COB2O [Compound 186] | ≥ 80% | – | – | – | – | ≥ 80% | ≥ 80% | – | – | – | ≥ 80% | 302 to 304 °C | –
13 | O=C(OCCc1ccc(Cl)cc1Cl)c1ccc2c(c1)B(O)OC2 [Compound 312] | ≥ 80% | – | ≥ 80% | – | – | – | – | – | ≥ 80% | – | – | – | –
14 | C[Si](C)(C)CCCOC(=O)c1cc2c(cc1Cl)COB2O [Compound 194] | ≥ 80% | – | – | ≥ 80% | ≥ 80% | – | – | ≥ 80% | ≥ 80% | ≥ 80% | – | – | –
15 | CCCCCCCCCCOC(=O)c1ccc2c(c1)B(O)OC2 [Compound 331] | – | ≥ 80% | ≥ 80% | ≥ 80% | – | ≥ 80% | – | – | – | ≥ 80% | – | – | –
16 | O=C(OCCc1ccc(Cl)cc1Cl)c1cc2c(cc1F)COB2O [Compound 370] | ≥ 80% | ≥ 80% | ≥ 80% | – | – | ≥ 80% | – | – | ≥ 80% | ≥ 80% | – | – | –
17 | O=C(NCc1cccc(Cl)c1)c1cc2c(cc1Cl)COB2O [Compound 85] | – | – | – | – | – | ≥ 80% | ≥ 80% | – | ≥ 80% | – | ≥ 80% | 263 to 265 °C | –
18 | O=C(NCc1ccccc1F)c1cc2c(cc1F)COB2O [Compound 107] | – | – | – | – | ≥ 80% | ≥ 80% | ≥ 80% | – | – | – | ≥ 80% | 175 to 177 °C | –
19 | O=C(OCc1ccsc1)c1cc2c(cc1F)COB2O [Compound 441] | ≥ 80% | ≥ 80% | ≥ 80% | ≥ 80% | ≥ 80% | ≥ 80% | ≥ 80% | – | – | ≥ 80% | – | 128 to 130 °C | ≥ 80%
20 | C#CC(OC(=O)c1cc2c(cc1Cl)COB2O)c1ccccc1 (stereo not drawn) [Compound 211] | ≥ 80% | ≥ 80% | – | – | ≥ 80% | ≥ 80% | ≥ 80% | – | – | ≥ 80% | ≥ 80% | – | –
21 | CC#CCOC(=O)c1ccc2c(c1)B(O)OC2 [Compound 323] | ≥ 80% | ≥ 80% | – | ≥ 80% | – | ≥ 80% | ≥ 80% | ≥ 80% | ≥ 80% | ≥ 80% | ≥ 80% | 154 to 155 °C | ≥ 80%
22 | Cc1cccc(Cl)c1NC(=O)c1cc2c(cc1Cl)COB2O [Compound 114] | ≥ 80% | – | – | – | ≥ 80% | – | ≥ 80% | – | – | ≥ 80% | ≥ 80% | – | ≥ 80%
23 | O=C(OCc1ccsc1)c1ccc2c(c1)B(O)OC2 [Compound 50] | ≥ 80% | ≥ 80% | ≥ 80% | ≥ 80% | ≥ 80% | ≥ 80% | ≥ 80% | – | ≥ 80% | ≥ 80% | – | 130 to 132 °C | ≥ 80%
24 | C#CC(CC)OC(=O)c1cc2c(cc1Cl)COB2O (stereo not drawn) [Compound 201] | ≥ 80% | – | – | – | ≥ 80% | ≥ 80% | ≥ 80% | ≥ 80% | ≥ 80% | ≥ 80% | – | – | –
25 | O=C(OCC#Cc1ccccc1)c1cc2c(cc1F)COB2O [Compound 422] | ≥ 80% | ≥ 80% | – | ≥ 80% | – | ≥ 80% | – | ≥ 80% | ≥ 80% | ≥ 80% | – | – | ≥ 80%
26 | Cc1ccc(-c2csc(NC(=O)c3cc4c(cc3F)COB4O)n2)cc1 [Compound 188] | ≥ 80% | – | ≥ 80% | – | – | – | ≥ 80% | – | – | – | – | – | –
